Laboratory results from ChEMBL document CHEMBL5729030, “Compound as selective JAK inhibitor, and salt and therapeutic use thereof” (2022).

Tests used:
[1] = target: Tyrosine-protein kinase JAK2 (Homo sapiens, UniProt O60674); assay: (§1) Inhibition of JAK: The study of the effect of compounds on the activity of purified recombinant JAK was performed by studying the inhibitory activity of the compounds on JAK from the enzymatic level. The experimental principle is to use a luminescence kinase assay to detect the ADP content produced by the reaction of JAK with the substrate Poly (4:1 Glu, Tyr) peptide: after ADP is converted to ATP, ATP can act as a substrate for the Ultra-Glo luciferase catalytic reaction, producing an optical signal. The luminescence signal is positively correlated with the amount of ADP and kinase activity. Therefore, the inhibitory effect of the compounds on the recombinant JAK was determined by observing the luminescence signal produced by the reaction of JAK and the substrate, and was expressed by IC50.
[2] = target: T1, Tyrosine-protein kinase JAK3 (Homo sapiens, UniProt P52333); assay: as §1
T1 sequence (P52333 whole entry): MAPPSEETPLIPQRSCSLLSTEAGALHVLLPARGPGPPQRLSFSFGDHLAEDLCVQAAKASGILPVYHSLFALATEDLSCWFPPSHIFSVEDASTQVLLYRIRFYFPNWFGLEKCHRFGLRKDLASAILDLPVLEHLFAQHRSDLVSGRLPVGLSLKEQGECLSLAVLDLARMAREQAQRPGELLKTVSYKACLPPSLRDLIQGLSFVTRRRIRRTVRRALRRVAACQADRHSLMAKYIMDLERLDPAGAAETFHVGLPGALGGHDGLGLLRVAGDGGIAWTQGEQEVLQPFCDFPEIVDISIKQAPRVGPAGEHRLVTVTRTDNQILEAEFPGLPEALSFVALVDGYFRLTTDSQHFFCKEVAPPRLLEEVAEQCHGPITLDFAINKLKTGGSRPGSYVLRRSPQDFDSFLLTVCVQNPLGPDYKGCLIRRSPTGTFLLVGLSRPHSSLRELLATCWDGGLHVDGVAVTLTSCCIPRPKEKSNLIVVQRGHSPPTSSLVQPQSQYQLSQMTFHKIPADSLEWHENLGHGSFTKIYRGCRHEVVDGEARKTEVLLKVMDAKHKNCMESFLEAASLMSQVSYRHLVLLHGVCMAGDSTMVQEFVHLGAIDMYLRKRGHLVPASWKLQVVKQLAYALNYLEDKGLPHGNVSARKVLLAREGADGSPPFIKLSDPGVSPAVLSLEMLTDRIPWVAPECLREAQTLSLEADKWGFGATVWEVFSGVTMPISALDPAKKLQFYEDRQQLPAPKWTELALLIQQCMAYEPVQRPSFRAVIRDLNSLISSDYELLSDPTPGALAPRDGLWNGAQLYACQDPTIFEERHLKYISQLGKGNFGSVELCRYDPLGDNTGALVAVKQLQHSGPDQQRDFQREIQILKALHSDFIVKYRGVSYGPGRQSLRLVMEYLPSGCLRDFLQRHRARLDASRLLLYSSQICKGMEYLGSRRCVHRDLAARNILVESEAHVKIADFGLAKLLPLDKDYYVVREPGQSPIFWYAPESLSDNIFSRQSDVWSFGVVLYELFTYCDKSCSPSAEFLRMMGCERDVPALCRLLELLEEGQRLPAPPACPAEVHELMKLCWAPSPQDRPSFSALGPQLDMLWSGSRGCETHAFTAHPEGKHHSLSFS

Tyrosine-protein kinase JAK2, sequence (O60674 whole entry): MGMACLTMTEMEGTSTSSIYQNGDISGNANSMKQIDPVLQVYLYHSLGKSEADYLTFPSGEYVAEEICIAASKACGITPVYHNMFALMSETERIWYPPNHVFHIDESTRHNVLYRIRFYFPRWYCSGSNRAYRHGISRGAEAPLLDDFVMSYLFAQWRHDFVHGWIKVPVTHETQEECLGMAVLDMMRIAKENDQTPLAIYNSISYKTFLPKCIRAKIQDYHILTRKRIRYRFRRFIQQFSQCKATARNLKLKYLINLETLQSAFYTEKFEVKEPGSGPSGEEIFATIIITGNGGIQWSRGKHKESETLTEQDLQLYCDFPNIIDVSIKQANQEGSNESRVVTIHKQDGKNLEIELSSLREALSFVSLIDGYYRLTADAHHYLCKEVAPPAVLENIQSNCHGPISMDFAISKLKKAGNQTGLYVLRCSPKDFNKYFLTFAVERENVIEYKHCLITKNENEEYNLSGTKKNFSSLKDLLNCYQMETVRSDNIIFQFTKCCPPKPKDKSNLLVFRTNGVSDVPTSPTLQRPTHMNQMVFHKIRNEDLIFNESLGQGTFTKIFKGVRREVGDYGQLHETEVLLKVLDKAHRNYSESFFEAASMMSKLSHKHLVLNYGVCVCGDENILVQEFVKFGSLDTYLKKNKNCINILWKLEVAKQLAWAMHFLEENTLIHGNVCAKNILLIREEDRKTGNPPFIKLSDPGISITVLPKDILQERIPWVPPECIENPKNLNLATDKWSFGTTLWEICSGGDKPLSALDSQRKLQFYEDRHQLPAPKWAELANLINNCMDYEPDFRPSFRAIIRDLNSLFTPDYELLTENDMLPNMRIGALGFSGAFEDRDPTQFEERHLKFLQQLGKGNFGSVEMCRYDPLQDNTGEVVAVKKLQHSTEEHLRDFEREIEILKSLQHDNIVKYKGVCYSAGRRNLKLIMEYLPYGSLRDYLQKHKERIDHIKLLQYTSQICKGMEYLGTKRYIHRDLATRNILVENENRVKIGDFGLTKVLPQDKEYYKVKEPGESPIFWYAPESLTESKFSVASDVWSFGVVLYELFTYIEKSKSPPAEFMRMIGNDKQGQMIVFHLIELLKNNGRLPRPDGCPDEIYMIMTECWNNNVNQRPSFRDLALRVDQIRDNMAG

Compound	IC50 [1]	IC50 [2]
CS(=O)(=O)C1CN(Cc2ccc(-c3cccn4nc(NC(=O)C5CC5)nc34)cc2F)C1	> 50 nM	> 50 nM
CS(=O)(=O)C1CN(Cc2ccc(-c3cccc4nc(NC(=O)C5CC5)nn34)cc2F)C1	> 50 nM	> 50 nM
